Source: patent US7625894B2, “Pyrrolo[2,3-d]Pyrimidines as Protein Tyrosine Kinase Inhibitors” (Novartis AG, priority 2004, dated 2009)

Experiments:
Bcr-Abl = target: T1, Bcr-Abl (Homo sapiens, UniProt P00519); experiment: Test for activity against Bcr-Abl (phosphorylation ELISA in 32D-bcr/abl cells); assay type: cell-based, murine; conditions: 32D cells transfected with p210 Bcr-Abl; ELISA of Bcr-Abl phosphorylation; read-out: bcrabl32DcEL/ Average<32Dp210IC50 [umol l−1]>
T1 construct: host or cells: murine myeloid progenitor cell line 32Dcl3 (32D-bcr/abl); the other entry of the earlier key: BCR (P11274, Breakpoint cluster region protein)
T1 sequence (P00519 28-1130 limits assumed): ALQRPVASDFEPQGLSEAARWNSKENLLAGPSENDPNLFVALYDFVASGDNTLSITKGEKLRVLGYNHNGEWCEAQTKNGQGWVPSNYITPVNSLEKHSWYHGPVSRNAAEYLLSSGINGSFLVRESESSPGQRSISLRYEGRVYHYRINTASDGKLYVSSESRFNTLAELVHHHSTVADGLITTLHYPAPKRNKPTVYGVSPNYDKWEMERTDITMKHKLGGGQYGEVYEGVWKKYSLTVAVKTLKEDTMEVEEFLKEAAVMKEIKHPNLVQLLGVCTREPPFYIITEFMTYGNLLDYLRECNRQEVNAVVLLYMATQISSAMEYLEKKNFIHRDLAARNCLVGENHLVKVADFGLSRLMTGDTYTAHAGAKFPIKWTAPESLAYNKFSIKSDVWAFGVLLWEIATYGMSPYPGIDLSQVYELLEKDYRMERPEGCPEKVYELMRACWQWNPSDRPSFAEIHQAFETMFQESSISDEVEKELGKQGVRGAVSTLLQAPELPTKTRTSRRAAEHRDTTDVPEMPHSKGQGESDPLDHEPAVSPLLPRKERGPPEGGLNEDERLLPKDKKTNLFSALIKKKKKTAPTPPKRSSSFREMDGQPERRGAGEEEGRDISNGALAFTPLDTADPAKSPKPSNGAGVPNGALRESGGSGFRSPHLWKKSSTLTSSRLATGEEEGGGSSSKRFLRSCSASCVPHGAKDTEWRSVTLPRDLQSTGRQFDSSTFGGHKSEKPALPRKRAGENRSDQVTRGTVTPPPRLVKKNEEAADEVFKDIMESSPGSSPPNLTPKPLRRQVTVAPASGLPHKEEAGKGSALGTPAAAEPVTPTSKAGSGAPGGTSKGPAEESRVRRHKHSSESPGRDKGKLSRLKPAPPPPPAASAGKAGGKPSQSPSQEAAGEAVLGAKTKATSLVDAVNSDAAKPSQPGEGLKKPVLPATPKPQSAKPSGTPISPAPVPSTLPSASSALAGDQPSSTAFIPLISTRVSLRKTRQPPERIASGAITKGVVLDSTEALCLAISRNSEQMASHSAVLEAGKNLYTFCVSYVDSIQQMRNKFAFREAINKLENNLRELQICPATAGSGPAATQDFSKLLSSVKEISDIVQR
Method: Test for activity against Bcr-Abl. The murine myeloid progenitor cell line 32Dcl3 transfected with the p210 Bcr-Abl expression vector pGDp210Bcr/Abl (32D-bcr/abl) was obtained from J. Griffin (Dana Faber Cancer Institute, Boston, Mass., USA). The cells express the fusion Bcr-Abl protein with a constitutively active Abl kinase and proliferate growth factor independent. The cells are expanded in RPMI 1640 (AMIMED), 10% fetal calf serum, 2 mM glutamine (Gibco) (“complete medium”), and a working stock is prepared by freezing aliquots of 2×10^6 cells per vial in freezing medium (95% FCS, 5% DMSO (SIGMA)). After thawing, the cells are used during maximally 10-12 passages for the experiments.
For cellular assays, compounds are dissolved in DMSO and diluted with complete medium to yield a starting concentration of 10 μM followed by preparation of serial 3-fold dilutions in complete medium. 200,000 32D-Bcr/Abl cells in 50 μL complete medium are seeded per well in 96 well round bottom tissue culture plates. 50 μL per well of serial 3-fold dilutions of the test compound are added to the cells in triplicates. Untreated cells are used as control. The compound is incubated together with the cells for 90 min at 37° C., 5% CO2, followed by centrifugation of the tissue culture plates at 1300 rpm (Beckman GPR centrifuge) and removal of the supernatants by careful aspiration taking care not to remove any of the pelleted cells. The cell pellets are lysed by addition of 150 μL lysis buffer (50 mM Tris/HCl, pH 7.4, 150 mM sodium chloride, 5 mM EDTA, 1 mM EGTA, 1% NP-40, 2 mM sodium ortho-vanadate, 1 mM PMSF, 50 μg/mL aprotinin and 80 μg/mL leupeptin) and either used immediately for the ELISA or stored frozen in the plates at −20° C. until usage.
Black ELISA plates (Packard HTRF-96 black plates) are precoated over night at 4° C. with 50 ng/well of the rabbit polyclonal anti-abl-SH3 domain Ab 06-466 from Upstate in 50 μL PBS. After washing 3 times with 200 μL/well PBS containing 0.05% Tween20 (PBST) and 0.5% TopBlock (Juro), residual protein binding sites are blocked with 200 μL/well PBST, 3% TopBlock for 4 h at room temperature followed by incubation with 50 μL lysates of untreated or compound-treated cells (20 μg total protein per well) for 3-4 h at 4° C. After 3 washings, 50 μL/well anti-phosphotyrosine Ab PY20(AP) labeled with alkaline phosphatase (Zymed) diluted to 0.2 μg/mL in blocking buffer is added and incubated over night (4° C.). For all incubation steps the plates are covered with plate sealers (Costar). Finally, the plates are washed another three times with washing buffer and once with deionized water before addition of 90 μL/well of the AP-substrate CDPStar RTU with Emerald II. The plates, now sealed with Packard TopSeal™-A plate sealers, are incubated for 45 min at room temperature in the dark and luminescence is quantified by measuring counts per second (CPS) with a Packard Top Count Microplate Scintillation Counter (Top Count). The difference between the ELISA-readout (CPS) obtained for with the lysates of the untreated 32D-Bcr/Abl cells and the readout for the assay-background (all components, but without cell lysate) is calculated and taken as 100% reflecting the constitutively phosphorylated Bcr-Abl protein present in these cells. The activity of the compound on the Bcr-Abl kinase activity is expressed as percent reduction of the Bcr-Abl phosphorylation. The values for the IC50 and IC90 are determined from the dose response curves by graphical extrapolation.

[1] = target: c-erbB2 tyrosine kinase (HER-2) (Homo sapiens, UniProt P04626); experiment: Inhibition of c-erbB2 tyrosine kinase (HER-2); assay type: biochemical; set-up: dose or concentration left out as unconfirmed
Source text: The inhibition of c-erbB2 tyrosine kinase (HER-2) can be measured, for example, in the same way as the inhibition of EGF-R protein kinase, using known procedures.

VEGF receptor (KDR) = target: T2, VEGF receptor (KDR) (Homo sapiens, UniProt P35968); experiment: Inhibition of VEGF-induced KDR-receptor autophosphorylation in transfected CHO cells; assay type: cell-based
T2 construct: expressed in transfected cells
T2 sequence (P35968 20-1356): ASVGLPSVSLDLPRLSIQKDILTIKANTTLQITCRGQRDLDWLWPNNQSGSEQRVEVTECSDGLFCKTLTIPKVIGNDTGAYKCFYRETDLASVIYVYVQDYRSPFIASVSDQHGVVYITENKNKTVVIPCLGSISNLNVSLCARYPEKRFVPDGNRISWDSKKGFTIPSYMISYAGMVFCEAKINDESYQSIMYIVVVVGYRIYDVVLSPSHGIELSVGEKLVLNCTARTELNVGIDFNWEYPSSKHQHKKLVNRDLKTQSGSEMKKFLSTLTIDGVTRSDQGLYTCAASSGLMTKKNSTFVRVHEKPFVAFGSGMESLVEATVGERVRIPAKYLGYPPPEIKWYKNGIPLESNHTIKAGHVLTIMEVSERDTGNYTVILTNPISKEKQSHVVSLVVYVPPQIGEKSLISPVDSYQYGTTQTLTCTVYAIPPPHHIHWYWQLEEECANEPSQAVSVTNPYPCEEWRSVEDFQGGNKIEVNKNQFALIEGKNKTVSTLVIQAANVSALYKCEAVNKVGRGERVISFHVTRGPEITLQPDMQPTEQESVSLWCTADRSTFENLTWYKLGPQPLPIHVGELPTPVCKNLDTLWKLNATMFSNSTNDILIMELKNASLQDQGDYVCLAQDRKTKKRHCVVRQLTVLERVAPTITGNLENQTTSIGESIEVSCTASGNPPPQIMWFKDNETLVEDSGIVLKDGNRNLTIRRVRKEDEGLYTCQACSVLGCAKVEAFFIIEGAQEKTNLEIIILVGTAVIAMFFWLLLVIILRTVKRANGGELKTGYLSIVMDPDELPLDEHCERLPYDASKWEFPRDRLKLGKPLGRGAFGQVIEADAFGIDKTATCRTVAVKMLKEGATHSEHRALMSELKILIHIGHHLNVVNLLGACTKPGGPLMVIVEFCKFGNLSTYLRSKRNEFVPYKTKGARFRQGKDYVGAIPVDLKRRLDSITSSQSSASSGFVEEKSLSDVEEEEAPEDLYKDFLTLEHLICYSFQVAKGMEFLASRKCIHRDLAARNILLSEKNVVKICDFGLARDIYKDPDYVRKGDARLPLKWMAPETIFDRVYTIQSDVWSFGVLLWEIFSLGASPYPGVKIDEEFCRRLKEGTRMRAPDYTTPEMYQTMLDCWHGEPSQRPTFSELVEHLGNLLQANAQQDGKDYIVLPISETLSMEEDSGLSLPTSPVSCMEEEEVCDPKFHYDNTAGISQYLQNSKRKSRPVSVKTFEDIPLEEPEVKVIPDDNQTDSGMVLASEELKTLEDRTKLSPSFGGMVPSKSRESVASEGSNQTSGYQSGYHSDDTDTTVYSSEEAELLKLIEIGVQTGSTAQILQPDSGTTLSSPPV
Method: The inhibition of VEGF-induced KDR-receptor autophosphorylation can be confirmed with a further in vitro experiment in cells: transfected CHO cells, which permanently express human VEGF receptor (KDR), are seeded in complete culture medium with 10% fetal calf serum (FCS) in 6-well cell-culture plates and incubated at 37° C. under 5% CO2 until they show about 80% confluency. The compounds to be tested are then diluted in culture medium (without FCS, with 0.1% bovine serum albumin) and added to the cells. (Controls comprise medium without test compounds). After two hours of incubation at 37° C., recombinant VEGF is added; the final VEGF concentration is 20 ng/mL). After a further five minute incubation at 37° C., the cells are washed twice with ice-cold PBS (phosphate-buffered saline) and immediately lysed in 100 μL lysis buffer per well. The lysates are then centrifuged to remove the cell nuclei, and the protein concentrations of the supernatants are determined using a commercial protein assay (BIORAD). The lysates can then either be immediately used or, if necessary, stored at −20° C.
A sandwich ELISA is carried out to measure the KDR-receptor phosphorylation: a monoclonal antibody to KDR (for example Mab 1495.12.14) is immobilized on black ELISA plates (OptiPlate™ HTRF-96 from Packard). The plates are then washed and the remaining free protein-binding sites are saturated with 1% BSA in PBS. The cell lysates (20 μg protein per well) are then incubated in these plates overnight at 4° C. together with an anti-phosphotyrosine antibody coupled with alkaline phosphatase (PY20: AP from Transduction Laboratories). […] The luminescence is measured in a Packard Top Count Microplate Scintillation Counter (Top Count). The difference between the signal of the positive control (stimulated with VEGF) and that of the negative control (not stimulated with VEGF) corresponds to VEGF-induced KDR-receptor phosphorylation (=100%). The activity of the tested substances is calculated as % inhibition of VEGF-induced KDR-receptor phosphorylation, wherein the concentration of substance that induces half the maximum inhibition is defined as the IC50 (effective dose for 50% inhibition).

Q: For CN(C)c1ncnc2[nH]c(-c3ccc(C(C)(C)O)cc3)cc12 [Example 34, 2-[4-(4-Dimethylamino-7H-pyrrolo[2,3-d]pyrimidin-6-yl)-phenyl]-propan-2-ol], which IC50 (Bcr-Abl) is on record?
A: 944 nM

Q: What about the “HER-2/%-inh. [%]” value [1] of the same molecule?
A: 57%

Q: And the “KDR (% inh)” value (VEGF receptor (KDR))?
A: 66%

Q: Which IC50 (Bcr-Abl) does the source give for CCCN(C)c1ncnc2[nH]c(-c3ccc(CN4CCN(C)CC4)cc3)cc12 [Example 19, Methyl-{6-[4-(4-methyl-piperazin-1-ylmethyl)-phenyl]-7H-pyrrolo[2,3-d]pyrimidin-4-yl}-propyl-amine] here?
A: 2070 nM

Q: And the “HER-2/%-inh. [%]” value [1]?
A: 89%

Q: And the “KDR (% inh)” value (VEGF receptor (KDR))?
A: 85%

Q: Which IC50 (Bcr-Abl) does the source give for CN(C)c1ncnc2[nH]c(-c3ccc(Cn4ccnc4)cc3)cc12 [Example 24, [6-(4-Imidazol-1-ylmethyl-phenyl)-7H-pyrrolo[2,3-d]pyrimidin-4-yl]-dimethylamine] here?
A: 790 nM

Q: And the “HER-2/%-inh. [%]” value [1]?
A: 93%

Q: What about the “KDR (% inh)” value (VEGF receptor (KDR)) of the same molecule?
A: 75%

Q: For COCCN(C)Cc1ccc(-c2cc3c(N(C)C)ncnc3[nH]2)cc1 [Example 29, [6-(4-{[(2-Methoxy-ethyl)-methyl-amino]-methyl}-phenyl)-7H-pyrrolo[2,3-d]pyrimidin-4-yl]-dimethyl-amine], which IC50 (Bcr-Abl) is on record?
A: 274 nM

Q: What about the “HER-2/%-inh. [%]” value [1] of the same molecule?
A: 79%

Q: And the “KDR (% inh)” value (VEGF receptor (KDR))?
A: 76%

Q: Which IC50 (Bcr-Abl) does the source give for CN(C)c1ncnc2[nH]c(-c3ccc(Cc4ccc[nH]4)cc3)cc12 [Example 25, Dimethyl-{6-[4-(1H-pyrrol-2-ylmethyl)-phenyl]-7H-pyrrolo[2,3-d]pyrimidin-4-yl}-amine] here?
A: ≥ 10000 nM

Q: What about the “HER-2/%-inh. [%]” value [1] of the same molecule?
A: 39%

Q: What about the “KDR (% inh)” value (VEGF receptor (KDR)) of the same molecule?
A: 50%

Q: For CN1CCN(C(=O)c2ccc(-c3cc4c(N(C)C)ncnc4[nH]3)cc2)CC1 [Example 3, [4-(4-Dimethylamino-7H-pyrrolo[2,3-d]pyrimidin-6-yl)-phenyl]-(4-methyl-piperazin-1-yl)-methanone], which IC50 (Bcr-Abl) is on record?
A: 797 nM

Q: And the “HER-2/%-inh. [%]” value [1]?
A: 78%

Q: What about the “KDR (% inh)” value (VEGF receptor (KDR)) of the same molecule?
A: 85%

Q: With CN1CCN(Cc2ccc(-c3cc4c(N(C)C)ncnc4[nH]3)cc2)CC1 [Example 4, Dimethyl-{6-[4-(4-methyl-piperazin-1-ylmethyl)-phenyl]-7H-pyrrolo[2,3-d]pyrimidin-4-yl}-amine] as the molecule, how does the IC50 (Bcr-Abl) read?
A: 729 nM

Q: And the “HER-2/%-inh. [%]” value [1]?
A: 87%

Q: What about the “KDR (% inh)” value (VEGF receptor (KDR)) of the same molecule?
A: 86%

Q: Which IC50 (Bcr-Abl) does the source give for CN(C)c1ncnc2[nH]c(-c3ccc(C(=O)NCCCN4CCOCC4)cc3)cc12 [Example 7, 4-(4-Dimethylamino-7H-pyrrolo[2,3-d]pyrimidin-6-yl)-N-(3-morpholin-4-yl-propyl)-benzamide] here?
A: 917 nM

Q: And the “HER-2/%-inh. [%]” value [1]?
A: 71%

Q: What about the “KDR (% inh)” value (VEGF receptor (KDR)) of the same molecule?
A: 79%

Q: Which results are given for CCN(CC)CCCNC(=O)c1ccc(-c2cc3c(N(C)C)ncnc3[nH]2)cc1 [Example 5, N-(3-Diethylamino-propyl)-4-(4-dimethylamino-7H-pyrrolo[2,3-d]pyrimidin-6-yl)-benzamide]?
A: HER-2/%-inh. [%] [1]: 78%; KDR (% inh) (VEGF receptor (KDR)): 79%

Q: How did the IC50 (Bcr-Abl) turn out when CCCNc1ncnc2[nH]c(-c3ccc(C(=O)N4CCN(C)CC4)cc3)cc12 [Example 17, (4-Methyl-piperazin-1-yl)-[4-(4-propylamino-7H-pyrrolo[2,3-d]pyrimidin-6-yl)-phenyl]-methanone] was run?
A: 1630 nM

Q: What about the “HER-2/%-inh. [%]” value [1] of the same molecule?
A: 87%

Q: And the “KDR (% inh)” value (VEGF receptor (KDR))?
A: 81%

Q: Which IC50 (Bcr-Abl) does the source give for “[4-(4-Methylamino-7H-pyrrolo[2,3-d]pyrimidin-6-yl)-phenyl]-morpholin-4-yl-methanone [Example 2]” here?
A: 292 nM

Q: What about the “HER-2/%-inh. [%]” value [1] of the same molecule?
A: 65%

Q: What about the “KDR (% inh)” value (VEGF receptor (KDR)) of the same molecule?
A: 77%

Q: Which results are given for CNc1ncnc2[nH]c(-c3ccc(C(=O)N4CCN(C)CC4)cc3)cc12 [Example 12, [4-(4-Methylamino-7H-pyrrolo[2,3-d]pyrimidin-6-yl)-phenyl]-(4-methyl-piperazin-1-yl)-methanone]?
A: HER-2/%-inh. [%] [1]: 85%; KDR (% inh) (VEGF receptor (KDR)): 67%

Q: Which “KDR (% inh)” value (VEGF receptor (KDR)) does the source give for CNc1ncnc2[nH]c(-c3ccc(C(C)(C)O)cc3)cc12 [Example 35, 2-[4-(4-Methylamino-7H-pyrrolo[2,3-d]pyrimidin-6-yl)-phenyl]-propan-2-ol] here?
A: 76%

Q: How did the “HER-2/%-inh. [%]” value [1] turn out when CN1CCN(C(=O)c2ccc(-c3cc4c(NCCCO)ncnc4[nH]3)cc2)CC1 [Example 15, {4-[4-(3-Hydroxy-propylamino)-7H-pyrrolo[2,3-d]pyrimidin-6-yl]-phenyl}-(4-methyl-piperazin-1-yl)-methanone] was run?
A: 88%

Q: What about the “KDR (% inh)” value (VEGF receptor (KDR)) of the same molecule?
A: 80%

Q: How did the IC50 (Bcr-Abl) turn out when CCCNc1ncnc2[nH]c(-c3ccc(CN4CCN(C)CC4)cc3)cc12 [Example 18, {6-[4-(4-Methyl-piperazin-1-ylmethyl)-phenyl]-7H-pyrrolo[2,3-d]pyrimidin-4-yl}-propyl-amine] was run?
A: 939 nM

Q: And the “HER-2/%-inh. [%]” value [1]?
A: 94%

Q: And the “KDR (% inh)” value (VEGF receptor (KDR))?
A: 83%

Q: How did the IC50 (Bcr-Abl) turn out when CNc1ncnc2[nH]c(-c3ccc(CN4CCN(C)CC4)cc3)cc12 [Example 16, Methyl-{6-[4-(4-methyl-piperazin-1-ylmethyl)-phenyl]-7H-pyrrolo[2,3-d]pyrimidin-4-yl}-amine] was run?
A: 50.8 nM

Q: And the “HER-2/%-inh. [%]” value [1]?
A: 93%

Q: And the “KDR (% inh)” value (VEGF receptor (KDR))?
A: 85%

Q: CN(C)c1ncnc2[nH]c(-c3ccc(Cn4cnnn4)cc3)cc12 [Example 27, Dimethyl-[6-(4-tetrazol-1-ylmethyl-phenyl)-7H-pyrrolo[2,3-d]pyrimidin-4-yl]-amine] was tested. Which IC50 (Bcr-Abl) did it give?
A: 903 nM

Q: What about the “HER-2/%-inh. [%]” value [1] of the same molecule?
A: 75%

Q: And the “KDR (% inh)” value (VEGF receptor (KDR))?
A: 58%

Q: Which results are given for CN(C)c1ncnc2[nH]c(-c3ccc(CNCCCO)cc3)cc12 [Example 28, 3-[4-(4-Dimethylamino-7H-pyrrolo[2,3-d]pyrimidin-6-yl)-benzylamino]-propan-1-ol]?
A: IC50 (Bcr-Abl): 409 nM; HER-2/%-inh. [%] [1]: 85%; KDR (% inh) (VEGF receptor (KDR)): 76%

Q: What does the source list for CN(C)c1ncnc2[nH]c(-c3ccc(C(=O)N4CCOCC4)cc3)cc12 [Example 6, [4-(4-Dimethylamino-7H-pyrrolo[2,3-d]pyrimidin-6-yl)-phenyl]-morpholin-4-yl-methanone]?
A: IC50 (Bcr-Abl): 935 nM; HER-2/%-inh. [%] [1]: 80%; KDR (% inh) (VEGF receptor (KDR)): 83%
